Source: patent US20240122876A1, “COMPOSITIONS AND METHODS FOR THE TREATMENT OF OCULAR DISORDERS” (Case Western Reserve University, priority 2021, published 2024)
Values joined by “and” are separate entries in the source; they are usually repeats but may differ in a detail not shown here. Equal values may be shown once. “Also recorded” adds a separate entry of the source.

Legend:
RPE65 = RPE65 (Bos taurus (Bovine), UniProt Q28175); assay: RPE65 retinoid isomerase activity assay (11-cis-retinol production by bovine RPE microsomes); type: biochemical; conditions: for IC50: inhibition of RPE65-mediated isomerization, decline in 11-cis-retinol production, bovine RPE microsomes
Experimental: After incubation at room temperature for 5 min, the resulting mixture was mixed with half microliter of all-trans-retinol (5 mM) in DMF, and then incubated at 37° C. for 1 h. The reaction was quenched by adding 400 μL of methanol (Fisher Chemical, Fair Lawn, NJ), and the products were extracted with 400 μL of hexanes.

[1] = Quantification of primary amine compound levels in serum and eyes of mice after intraperitoneal treatment (LC-MS/MS); type: in vivo; conditions: mouse, 380 nmol i.p.; for initial plasma (serum) level: 3 h
Experimental: Eight weeks old BL/6J mice were treated with 380 nmol visual cycle modulator 24, 49, 57, 58, 59 or emixustat in DMSO (50 μL) by intraperitoneal injection, and sacrificed at 3 h, 1 day, or 7 days later. Blood and eyeball samples were collected immediately. After clotting at room temperature for 30 min, the blood samples were centrifuged for 10 minutes at 17,000 g in a temperature-controlled benchtop centrifuge (Eppendorf AG). Each serum sample (100 μL) was carefully removed to avoid disturbing loose clots, precipitated with […] of pre-cooled methanol, and centrifuged at 17,000 g for 15 min at 4° C. The supernatant was carefully transferred to a SpinX centrifuge tube filter with a 0.45 μm cellulose acetate membrane (Costar, Salt Lake City, UT), and centrifuged at 7,000 g for 2 min. Filtered samples were dried under vacuum, reconstituted in 100 μL 50% methanol/water, and centrifuged at 17,000 g for 15 min at 4° C. The resulting supernatants were ready for Liquid Chromatography/Mass Spectrometry analyses. The two eyeballs from each mouse were homogenized in acetonitrile (2×800 μL). The resulting mixture was centrifuged at 17,000 g for 15 min at 4° C. The supernatant was dried under vacuum, reconstituted in 100 μl 50% methanol/water, and centrifuged at 17,000 g for 15 min at 4° C. Twenty microliters of the supernatant extracted from serum or eye samples was injected into an Ultimate 3000 HPLC system coupled with LXQ mass spectrometer (ThermoFisher Scientific, Waltham, MA) with an electrospray ionization unit.

[2] = RPE65 inhibition, ratio of IC50

Sequence of RPE65 (Q28175 whole entry): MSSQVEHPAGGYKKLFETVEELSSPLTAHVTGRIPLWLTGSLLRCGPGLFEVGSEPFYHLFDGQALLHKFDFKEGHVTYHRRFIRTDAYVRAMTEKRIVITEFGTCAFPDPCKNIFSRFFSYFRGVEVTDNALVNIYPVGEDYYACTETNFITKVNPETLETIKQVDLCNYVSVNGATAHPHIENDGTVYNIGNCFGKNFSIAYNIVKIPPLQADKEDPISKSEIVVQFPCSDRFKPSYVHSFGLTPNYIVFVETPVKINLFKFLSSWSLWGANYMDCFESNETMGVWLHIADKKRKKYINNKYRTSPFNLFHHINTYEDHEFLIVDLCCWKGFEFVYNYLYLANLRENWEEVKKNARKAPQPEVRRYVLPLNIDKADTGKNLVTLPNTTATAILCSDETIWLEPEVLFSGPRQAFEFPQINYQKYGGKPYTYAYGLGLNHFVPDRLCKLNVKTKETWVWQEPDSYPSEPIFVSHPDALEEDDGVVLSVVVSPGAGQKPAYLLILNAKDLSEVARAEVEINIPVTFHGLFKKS

| Compound | IC50 (RPE65) | further results |
| --- | --- | --- |
| CCCC(CCC)COc1cccc(C(O)CCN)c1F (racemic) [Compound 30, (S/R)-3-amino-1-(2-fluoro-3-((2-propylpentyl)oxy)phenyl)propan-1-ol] | 274 ± 47 nM | – |
| CCCC(CCC)COc1cc([C@H](O)CCN)ccc1F [Compound 24, (R)-3-Amino-1-(4-fluoro-3-((2-propylpentyl)oxy)phenyl)propan-1-ol] | 50 ± 9 nM | inhibitory potency / IC50 relative to (R)-MB-004 (RPE65; [2]): twice; also recorded: approximately two-fold lower; inhibitory potency relative to racemic emixustat (RPE65; [2]): 3 times; distribution within ocular tissue [1]: poorest distribution within ocular tissue; plasma half-life [1]: longer plasma half-life; initial plasma (serum) level [1]: highest initial plasma levels |
| CC1=C(COc2cccc(C(O)CCN)c2F)C(C)(C)CCC1 (stereo not shown) [Compound 56, 3-amino-1-(2-fluoro-3-((2,6,6-trimethylcyclohex-1-en-1-yl)methoxy)phenyl)propan-1-ol] | 169 ± 13 nM | – |
| NCCC(O)c1cc(F)cc(OCC2CCCCC2)c1 (stereo not shown) [Compound 50, 3-amino-1-(3-(cyclohexylmethoxy)-5-fluorophenyl)propan-1-ol] | 201 ± 23 nM | – |
| CCCC(CCC)COc1ccc(F)c(C(O)CCN)c1 (racemic) [Compound 28, (S/R)-3-amino-1-(2-fluoro-5-((2-propylpentyl)oxy)phenyl)propan-1-ol] | 132 ± 19 nM | – |
| NCCC(O)c1ccc(F)c(OCC2CCCCC2)c1 (stereo not shown) [Compound 49, 3-amino-1-(3-(cyclohexylmethoxy)-4-fluorophenyl)propan-1-ol] | 95 ± 5 nM | distribution within ocular tissue [1]: poorest distribution within ocular tissue; initial plasma (serum) level [1]: highest initial plasma levels |
| CC1=C(COc2cccc([C@H](O)CCN)c2)C(C)(C)CCC1 [(R)-MB-001, reference compound] | 323 ± 145 nM | – |
| CCCC(CCC)COc1cccc([C@H](O)CCN)c1 [(R)-MB-004, reference compound] | 106 ± 16 nM | – |
| CC1=C(COc2cc(C(O)CCN)ccc2F)C(C)(C)CCC1 (stereo not shown) [Compound 53, 3-amino-1-(4-fluoro-3-((2,6,6-trimethylcyclohex-1-en-1-yl)methoxy)phenyl)propan-1-ol] | 284 ± 20 nM | – |
| NCCC(O)c1cccc(OCC2CCC(F)(F)CC2)c1 (stereo not shown) [Compound 57, 3-amino-1-(3-((4,4-difluorocyclohexyl)methoxy)phenyl) propan-1-ol] | 100 nM and 103 nM | distribution within ocular tissue [1]: further enhanced ocular distribution |
| CCCC(CCC)COc1cc(F)cc(C(O)CCN)c1 (racemic) [Compound 26, (S/R)-3-amino-1-(3-fluoro-5-((2-propylpentyl)oxy)phenyl)propan-1-ol] | 184 ± 24 nM | – |

Further compounds by falling IC50 (RPE65), results first:

| IC50 (RPE65) | Compound | further results |
| --- | --- | --- |
| 358 ± 42 nM | NCCC(O)c1cccc(OCC2CCCCC2)c1F (stereo not shown) [Compound 52, 3-amino-1-(3-(cyclohexylmethoxy)-2-fluorophenyl)propan-1-ol] | – |
| 295 ± 132 nM | CCCC(CCC)COc1cc(F)cc(C(O)CCN)c1 (racemic) [Compound 25, (S/R)-3-amino-1-(3-fluoro-5-((2-propylpentyl)oxy)phenyl)propan-1-ol] | – |
| 292 ± 89 nM | CC1=C(COc2cc(F)cc(C(O)CCN)c2)C(C)(C)CCC1 (stereo not shown) [Compound 54, 3-amino-1-(3-fluoro-5-((2,6,6-trimethylcyclohex-1-en-1-yl)methoxy)phenyl)propan-1-ol] | – |
| 287 ± 283 nM | CCCC(CCC)COc1cccc(C(O)CCN)c1F (racemic) [Compound 29, (S/R)-3-amino-1-(2-fluoro-3-((2-propylpentyl)oxy)phenyl)propan-1-ol] | – |
| 269 ± 40 nM | [2H]C([2H])(N)CC(O)c1cccc(OCC2CCC(F)(F)CC2)c1 (stereo not shown) [Compound 59, 3-amino-1-(3-((4,4-difluorocyclohexyl)methoxy)phenyl)propan-3,3-d2-1-ol] | – |
| 177 ± 11 nM | CCCC(CCC)COc1cc([C@@H](O)CCN)ccc1F [Compound 23, (S)-3-Amino-1-(4-fluoro-3-((2-propylpentyl)oxy)phenyl)propan-1-ol] | – |
| 157 ± 24 nM | CCCC(CCC)COc1ccc(F)c(C(O)CCN)c1 (racemic) [Compound 27, (S/R)-3-amino-1-(2-fluoro-5-((2-propylpentyl)oxy)phenyl)propan-1-ol] | – |
| 145 ± 9 nM | NCCC(O)c1cc(OCC2CCCCC2)ccc1F (stereo not shown) [Compound 51, 3-amino-1-(5-(cyclohexylmethoxy)-2-fluorophenyl)propan-1-ol] | – |
| 124 ± 21 nM | CC1=C(COc2ccc(F)c(C(O)CCN)c2)C(C)(C)CCC1 (stereo not shown) [Compound 55, 3-amino-1-(2-fluoro-5-((2,6,6-trimethylcyclohex-1-en-1-yl)methoxy)phenyl)propan-1-ol] | – |
